Laboratory results from patent US20230263749A1, “COMPOSITIONS AND METHODS FOR IMPROVING NEUROLOGICAL DISEASES AND DISORDERS” (CuraSen Therapeutics, Inc., priority 2020, published 2023).
“Also recorded” adds a separate entry of the source.

How the values were obtained:
Format in all cases: in vivo, human
[1] = test system: healthy subjects; experiment: Heart rate by triplicate ECG after Compound 03-5 with or without nadolol pre-administration
Procedure: Heart rate was measured by triplicate ECG recordings. Data are presented as means changes from time-matched measures recorded on the day before the first dose of study drug (Day −1).
Healthy volunteers were be enrolled into 2 cohorts in a study to undertake within-subject dose titration of Compound 03-5 and/or nadolol in order to explore doses/dose combinations that mitigate peripheral effects of Compound 03-5, e.g. on heart rate, while preserving possible central effects of Compound 03-5 on cerebral perfusion and pupillary light reflex.
Cohort D1 enrolled 8 healthy subjects and undertook an evaluation of the effects of treatment on ECG following repeat dosing of Compound 03-5 in the presence of escalating doses of nadolol according to following schematic.
Eight healthy subjects aged 18-50 years were enrolled into Cohort D1 and received escalating doses of Compound 03-5 (3-12 mg) administered once daily 2 hours follow pre-administration of nadolol (1-40 mg). On all dosing days, study drug(s) were administered orally after an overnight fast of at least 8 hours.
(§1) Routine measures of ECG, vital signs, safety labs, physical exams and plasma sample collections for analysis of drug pharmacokinetics (PK) were undertaken according to the Schedule of Events (Table 1).
(§2) In Cohort D2, 8 healthy volunteers aged 55-75 years were admitted on Day −1 for a 5-day confinement period at the research facility. During this confinement, subjects received escalating doses of open label Compound 03-5 (1-10 mg) once-daily from Day 1 through Day 3 2 hours after pre-administration of open-label nadolol (3 mg) one each for the 3 dosing days according to the following schematic. Subjects remained in-residency until all study procedures are completed on Day 4.

[2] = test system: healthy volunteers aged 55-75 years; experiment: CANTAB cognition battery, Cohort D2; details: Compound 03-5 1, 3 and 10 mg once daily, 2 h after 3 mg nadolol, change from within-day pre-dose
Procedure: CANTAB data from healthy adults 55-75 years of age (N=4) who received once-daily 3 mg nadolol and Compound 03-5 (1, 3, and 10 mg) on Day 1, Day 2 and Day 3. […] Data are presented as mean changes from the within-day pre-dose assessment.
In some embodiments, cognition may be evaluated using the Cambridge Neuropsychological Test Automated Battery (CANTAB) assessment (see, for example, Sahakian, et al., (1988). Brain. 111 (3): 695-718). Cognitive domains, such as attention, visuospatial working memory, episodic memory, speed of process and executive function can be assessed using the CANTAB Battery Test, which includes the following: • Reaction Time (RTI), • Paired Associates Learning (PAL), • Verbal Recognition Memory (VRM) Immediate Free Recall, • Rapid Visual Information Processing (RVP), • Spatial Working Memory (SWM), • Adaptive Tracking, and • VRM Delayed Free recall and Forced-Choice Recognition.
as §2

[3] = test system: healthy subjects; experiment: Blood potassium, glucose and other peripheral effects of Compound 03-5 with or without nadolol
Source text: Data are presented as individual observations for all available subjects.
as §1

[4] = test system: healthy subjects; experiment: Adaptive tracking test (visuomotor coordination and vigilance); details: single dose of 160 μg clenbuterol
Source text: Adaptive tracking measures visuomotor coordination and vigilance. In this test, the subject uses a joystick to move a small dot so that it stays within a continuously moving circle on a computer screen (Boland 1984). During the test, the speed of the circle is adjusted in response to the subject's ability to keep the dot in the circle, ensuring that the test is adapted to the individual subject. […] The improvement shown by subjects is in the same range as that seen with subjects treated with the acetylcholinesterase inhibitor donepezil, which is in clinical use for the treatment of mild to moderate AD (Groeneveld 2016).

[5] = test system: subjects; experiment: Visual verbal learning test (VVLT); details: crossover study, Part A
Procedure: Subjects are presented 30 words on a screen, one at a time, for 1 second with a 1-second interval between words over a total of 1 minute. This is repeated in 3 trials. After each trial, subjects are asked to recall as many words as they can. After the third trial, there is a delay of 2.5 hours and subjects are then tested once for delayed recall. […] Since this was a crossover study, everyone who completed Part A was dosed with the 3 agents plus placebo.

[6] = test system: patients; experiment: Cerebral blood flow relative to baseline after a single dose in patients (Example 1)
[7] = test system: healthy subjects; experiment: ASL MRI cerebral perfusion before and after a single dose in healthy subjects (Example 3)
Procedure: The data are plotted as change from baseline in cerebral blood flow in different regions of the brain.
Six healthy subjects aged 44-52 were treated with a single dose of […]. The Baseline vs. post-dose paired t-tests results: p=0.019. The color scale is shown in the middle and indicates cerebral blood flow with low values in red and high values in yellow.
In a clinical study, healthy subjects were administered doses of clenbuterol ranging from 20 to 160 μg and ASL MM was conducted prior to and after dosing with an objective to ascertain whether this neuroimaging method enables the detection of a clinically relevant CNS signal.
In a region of interest (ROI) analysis focusing on the hippocampus, which is well understood to be affected in neurodegenerative disorders, a single dose of 80 μg of clenbuterol causes a robust increase in perfusion (see FIG. 7). […] Taken together with other cohorts in which ASL MM was conducted, a clear dose response relationship is seen between dose of clenbuterol and cerebral perfusion (FIG. 8). […] Our hypothesis is that by improving cerebral perfusion, particularly in areas of the brain that are relevant for symptoms that are commonly found in neurodegenerative diseases such as PD and AD, the administration of a β-AR agonist (such as a β-agent) will have a positive effect on clinically relevant symptoms such as memory and cognition.

[8] = clenbuterol doses of 80 and 160 μg

## CC(C)(C)NC[C@H](O)c1cccc(C#N)n1 [Compound 03-5, (S)-6-(2-(tert-butylamino)-1-hydroxyethyl)picolinonitrile]
[1]; 6 mg Compound 03-5 after pre-administration of 1 mg nadolol
  mean maximum increase in heart rate: 7 beats per minute
[2]
  performance in the CANTAB cognition battery: improvements in performance in the CANTAB cognition battery
[3]; Compound 03-5 monotherapy 0.3 mg-6 mg, Cohorts A1-A5
  hypokalemia (blood potassium levels): Dose-dependent increases in hypokalemia

## CC(C)(C)NCC(O)c1cc(Cl)c(N)c(Cl)c1 (stereo not shown) [clenbuterol]
[4]; healthy subjects, preliminary data
  cognition as measured by adaptive tracking and word recall: improves cognition
[4]
  performance in adaptive tracking (percent time dot kept within moving circle): improved adaptive tracking; also recorded: performance in adaptive tracking improves
[5]
  effect on the VVLT: positive effects
[6]; single dose of clenbuterol 160 μg
  cerebral blood flow (CBF) relative to baseline: robust global increase in cerebral blood flow; also recorded: positive increase in cerebral blood flow
[6]; single dose of clenbuterol 160 μg and nadolol 5 mg
  cerebral blood flow (CBF) relative to baseline: robust global increase in cerebral blood flow
[6]; single dose of clenbuterol ranging from 30 to 160 μg, tracked over 3 days
  cerebral blood flow (CBF) relative to baseline: robust global increase in cerebral blood flow
[7]; 6 healthy subjects aged 44 to 52, single dose of 80 μg clenbuterol, hippocampus ROI
  increase in hippocampal perfusion, on average: 25%
[7]; clenbuterol dose of 40 μg
  cerebral perfusion increase as measured by CBF: minimal increase
[7]; clenbuterol doses below 30 μg
  cerebral perfusion increase as measured by CBF: do not produce significant cerebral perfusion increases
[7]; [8]
  global perfusion (ASL MRI): robust, global increase in perfusion
  improvement in perfusion in brain areas relevant to the neuropathology of neurodegenerative disorders: ~25%
[7]; healthy subjects, single dose of 160 μg clenbuterol
  cerebral perfusion (ASL MRI): robust global increase in cerebral perfusion

## CC(C)(C)NCC(O)COc1cccc2c1CC(O)C(O)C2 (stereo not shown) [nadolol]
[1]; Cohort D1, pre-administered nadolol 1 mg up to 40 mg, Compound 03-5 3-12 mg
  effect of nadolol on peripheral effects of Compound 03-5 on heart rate, glucose, potassium, tachycardia, tremor and palpitations: blocked the peripheral effects
[1]; Cohort D1, pre-administration of 1 mg nadolol, Compound 03-5 orally up to 6 mg
  effect of nadolol on Compound 03-5 increase in heart rate and other peripheral effects including hyperglycemia and hypokalemia: substantially attenuated
[1]; Cohort D2, pre-administered nadolol 3 mg, Compound 03-5 1-10 mg
  effect of nadolol on peripheral effects of Compound 03-5 on heart rate, etc.: similarly blocked the peripheral effects
[3]; nadolol 1-40 mg, Cohorts D1 and D2
  effect of nadolol on Compound 03-5 hypokalemia: attenuation of hypokalemia
[3]; pre-administration of 1 mg nadolol, 6 mg Compound 03-5
  effect of nadolol on effects of Compound 03-5 on blood glucose and potassium, tachycardia, tremor and palpitations: Concomitant attenuation

## CC(C)NCC(O)COc1cccc2[nH]ccc12 (stereo not shown) [pindolol]
[5]
  effect on the VVLT: detrimental effect

## CC(C)(C)NCC(O)c1ccc(O)c(CO)c1 (stereo not shown) [salbutamol]
[5]
  effect on the VVLT: positive effects
